The source of these data is patent publication US10172832B2, “Amide derivatives of N-urea substituted amino acids as formyl peptide receptor like-1 (FPRL-1) receptor modulators” (Allergan, Inc., priority 2011, dated 2019).

The assay has as its target T1, FPRL-1 (Homo sapiens, UniProt P25090).
T1 construct: expressed in transfected cells
T1 sequence (P25090 1-351): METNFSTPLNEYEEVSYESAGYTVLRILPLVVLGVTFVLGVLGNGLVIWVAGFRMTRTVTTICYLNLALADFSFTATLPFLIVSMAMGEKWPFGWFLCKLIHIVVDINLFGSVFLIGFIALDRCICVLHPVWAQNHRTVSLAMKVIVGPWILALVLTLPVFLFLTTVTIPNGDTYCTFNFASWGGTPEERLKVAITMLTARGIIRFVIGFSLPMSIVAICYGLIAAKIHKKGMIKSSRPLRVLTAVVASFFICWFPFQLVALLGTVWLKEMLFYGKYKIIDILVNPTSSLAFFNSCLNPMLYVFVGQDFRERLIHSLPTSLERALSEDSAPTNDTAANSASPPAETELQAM
In words: compound-induced calcium activity on FLIPR Tetra in CHO-Gα16 cells stably expressing FPRL1. Type of assay: cell-based. The conditions noted are these: for FPRL-1 Ga16-CHO (Rel. eff.): relative efficacy; for EC50: tested 0.61 to 10,000 nM, read-out: FPRL-1 Ga16-CHO EC50. The procedure:
CHO-Gα16 cells stably expressing FPRL1 were cultured in (F12, 10% FBS, 1% PSA, 400 μg/ml geneticin and 50 μg/ml hygromycin) and HEK-Gqi5 cells stable expressing FPR1 were cultured in (DMEM high glucose, 10% FBS, 1% PSA, 400 μg/ml geneticin and 50 μg/ml hygromycin). In general, the day before the experiment, 18,000 cells/well were plated in a 384-well clear bottom poly-d-lysine coated plate. The following day the screening compound-induced calcium activity was assayed on the FLIPR^Tetra. The drug plates were prepared in 384-well microplates using the EP3 and the MultiPROBE robotic liquid handling systems. Compounds were tested at concentrations ranging from 0.61 to 10,000 nM. Results are expressed as EC50 (nM) and efficacy values.

Broadly, the EC50 is the concentration at which the effect is half-maximal. Consider `CC(=O)CNC(=O)[C@H](CC(C)C)NC(=O)Nc1ccc(Br)cc1F` [Compound 35, (2S)-2-{[(4-bromo-2-fluorophenyl)carbamoyl]amino}-4-methyl-N-(2-oxopropyl)pentanamide], for which the “FPRL-1 Ga16-CHO (Rel. eff.)” value is “(0.99)” and the EC50 was 20 nM.

With `CCC[C@H](NC(=O)[C@H](CC(C)C)NC(=O)Nc1ccc(Br)cc1)C(N)=O` [Compound 53, (2S)-N-[(2S)-1-amino-1-oxopentan-2-yl]-2-{[(4-bromophenyl)carbamoyl]amino}-4-methylpentanamide], the “FPRL-1 Ga16-CHO (Rel. eff.)” value is recorded as “(1.03)” and the EC50 is 6.4 nM.

Take `CC(C)C[C@H](NC(=O)Nc1ccc(S(C)(=O)=O)cc1)C(=O)NCC(=O)OC(C)(C)C` [Compound 76, tert-butyl {[(2S)-4-methyl-2-({[4-(methylsulfonyl)phenyl]carbamoyl}amino)pentanoyl]amino}acetate]: the “FPRL-1 Ga16-CHO (Rel. eff.)” value is recorded as “(0.90)” and the concentration giving a half-maximal response (EC50) came out at 1080 nM.

As for `NC(=O)CC(NC(=O)Nc1ccc(Br)cc1)C(=O)NCC(=O)O` (stereo not shown) [[(4-amino-2-{[(4-bromophenyl)carbamoyl]amino}-4-oxobutanoyl)amino]acetic acid], the “FPRL-1 Ga16-CHO (Rel. eff.)” value is listed as “(0.81)” and the EC50 came to 2940 nM.

On to `CC(C)(C)OC(=O)CNC(=O)C(Cc1c[nH]cn1)NC(=O)Nc1ccc(Br)cc1` (stereo not shown) [Compound 84, tert-butyl {[2-{[(4-bromophenyl)carbamoyl]amino}-3-(1H-imidazol-4-yl)propanoyl]amino}acetate], for which the “FPRL-1 Ga16-CHO (Rel. eff.)” value is “(0.95)” and the EC50 was determined as 263 nM.

Consider `CC[C@H](C)[C@H](NC(=O)Nc1ccc(Br)cc1)C(=O)NCCO` [Compound 14, (2S,3S)-2-{[(4-bromophenyl)carbamoyl]amino}-N-(2-hydroxyethyl)-3-methylpentanamide], for which the “FPRL-1 Ga16-CHO (Rel. eff.)” value is recorded as “(1.00)” and the EC50 worked out at 24 nM.

For `O=C(O)CNC(=O)C(Cc1c[nH]cn1)NC(=O)Nc1ccc(Br)cc1` (stereo not shown) [Compound 85, {[2-{[(4-bromophenyl)carbamoyl]amino}-3-(1H-imidazol-4-yl)propanoyl]amino}acetic acid], the “FPRL-1 Ga16-CHO (Rel. eff.)” value was “(0.95)” and the EC50 stood at 10 nM.

Take `CC(C)C[C@H](NC(=O)Nc1ccc(C(F)(F)F)cc1)C(=O)NC(C)(C)C(=O)OC(C)(C)C` [Compound 79, tert-butyl 2-methyl-2-{[(2S)-4-methyl-2-({[4-(trifluoromethyl)phenyl]carbamoyl}amino)pentanoyl]amino}propanoate]: the “FPRL-1 Ga16-CHO (Rel. eff.)” value is “(1.07)” and the EC50 came out at 1020 nM.

Turning to `CC(=O)CNC(=O)[C@H](CC(C)C)NC(=O)Nc1ccc(Br)cc1` [Compound 27, (2S)-2-{[(4-bromophenyl)carbamoyl]amino}-4-methyl-N-(2-oxopropyl)pentanamide], the “FPRL-1 Ga16-CHO (Rel. eff.)” value is listed as “(0.82)” and the EC50 was 4.7 nM.

Take `CC(C)C[C@H](NC(=O)Nc1ccc(Br)cc1)C(=O)N[C@H](C(=O)O)c1ccccc1` [Compound 52, (2S)-{[(2S)-2-{[(4-bromophenyl)carbamoyl]amino}-4-methylpentanoyl]amino}(phenyl)ethanoic acid]: the “FPRL-1 Ga16-CHO (Rel. eff.)” value is “(1.08)” and the concentration giving a half-maximal response (EC50) turned out to be 9.1 nM.

For `CC(C)C[C@H](NC(=O)Nc1ccc(SC(F)(F)F)cc1)C(=O)NCC(=O)O` [Compound 72, ({(2S)-4-methyl-2-[({4-[(trifluoromethyl)sulfanyl]phenyl}carbamoyl)amino]pentanoyl}amino)acetic acid], the “FPRL-1 Ga16-CHO (Rel. eff.)” value was “(1.07)” and the EC50 stood at 560 nM.

As to `CS(=O)(=O)CC[C@H](NC(=O)Nc1ccc(Br)cc1)C(=O)NCC(=O)O` [Compound 83, {[(2S)-2-{[(4-bromophenyl)carbamoyl]amino}-4-(methylsulfonyl)butanoyl]amino}acetic acid], the “FPRL-1 Ga16-CHO (Rel. eff.)” value is given as “(1.01)” and the concentration giving a half-maximal response (EC50) was found to be 247 nM.

`CC(C)C[C@H](NC(=O)Nc1ccc(S(C)(=O)=O)cc1)C(=O)NCC(=O)O` [Compound 78, {[(2S)-4-methyl-2-({[4-(methylsulfonyl)phenyl]carbamoyl}amino)pentanoyl]amino}acetic acid]: the “FPRL-1 Ga16-CHO (Rel. eff.)” value was “(1.12)” and the concentration giving a half-maximal response (EC50) is 459 nM.

As to `CC(C)C[C@H](NC(=O)Nc1ccc(Br)cc1)C(=O)NCC(N)=O` [Compound 32, (2S)-N-(2-amino-2-oxoethyl)-2-{[(4-bromophenyl)carbamoyl]amino}-4-methylpentanamide], the “FPRL-1 Ga16-CHO (Rel. eff.)” value is on record as “(1.08)” and the EC50 is 1.05 nM.

Take `CCC[C@H](NC(=O)Nc1ccc(Br)cc1)C(=O)NCC(=O)O` [Compound 5, {[(2S)-2-{[(4-bromophenyl)carbamoyl]amino}pentanoyl]amino}acetic acid]: the “FPRL-1 Ga16-CHO (Rel. eff.)” value is recorded as “(0.91)” and the EC50 came out at 3.2 nM.

As to `CC(C)C[C@H](NC(=O)Nc1ccc(Br)cc1)C(=O)N[C@H](C(=O)O)C(C)C` [Compound 44, (2S)-2-{[(2S)-2-{[(4-bromophenyl)carbamoyl]amino}-4-methylpentanoyl]amino}-3-methylbutanoic acid], the “FPRL-1 Ga16-CHO (Rel. eff.)” value is listed as “(1.13)” and the 50% effective concentration (EC50) came out at 1.83 nM.

In the case of `CC(C)C[C@H](NC(=O)Nc1ccc(Br)cc1)C(=O)N[C@@H](C)C(=O)OC(C)(C)C` [Compound 41], the “FPRL-1 Ga16-CHO (Rel. eff.)” value was “(0.96)” and the EC50 amounted to 147 nM.

Take `CC(C)C[C@H](NC(=O)Nc1ccc(Br)cc1)C(=O)NC(C)(C)C(=O)OC(C)(C)C` [Compound 73, tert-butyl 2-{[(2S)-2-{[(4-bromophenyl)carbamoyl]amino}-4-methylpentanoyl]amino}-2-methylpropanoate]: the “FPRL-1 Ga16-CHO (Rel. eff.)” value is reported as “(1.16)” and the 50% effective concentration (EC50) is 133 nM.

Regarding `CC(C)C[C@H](NC(=O)Nc1ccc(Br)cc1)C(=O)NCC(=O)N(C)C` [Compound 61, (2S)-2-{[(4-bromophenyl)carbamoyl]amino}-N-[2-(dimethylamino)-2-oxoethyl]-4-methylpentanamide], the “FPRL-1 Ga16-CHO (Rel. eff.)” value is given as “(0.90)” and the EC50 stood at 1.4 nM.

In the case of `CC(C)C[C@H](NC(=O)Nc1ccc(SC(F)(F)F)cc1)C(=O)NCC(=O)OC(C)(C)C` [Compound 71, tert-butyl ({(2S)-4-methyl-2-[({4-[(trifluoromethyl)sulfanyl]phenyl}carbamoyl)amino]pentanoyl}amino)acetate], the “FPRL-1 Ga16-CHO (Rel. eff.)” value is reported as “(0.78)” and the EC50 was 3100 nM.

With `CCC[C@H](NC(=O)Nc1ccc(Br)cc1F)C(=O)NCC(C)=O` [(2S)-2-{[(4-bromo-2-fluorophenyl)carbamoyl]amino}-N-(2-oxopropyl)pentanamide], the “FPRL-1 Ga16-CHO (Rel. eff.)” value was “(0.92)” and the EC50 is 92 nM.

For the compound `CC(C)(C)OC(=O)CNC(=O)[C@H](Cc1ccccc1)NC(=O)Nc1ccc(Br)cc1` [Compound 7, tert-Butyl {[(2S)-2-{[(4-bromophenyl)carbamoyl]amino}-3-phenylpropanoyl]amino}acetate], the “FPRL-1 Ga16-CHO (Rel. eff.)” value is recorded as “(0.91)” and the concentration giving a half-maximal response (EC50) came to 118 nM.

For the compound `CC(=O)CNC(=O)[C@H](Cc1ccccc1)NC(=O)Nc1ccc(Br)cc1F` [Compound 17, (2S)-2-{[(4-bromo-2-fluorophenyl)carbamoyl]amino}-N-(2-oxopropyl)-3-phenylpropanamide], the “FPRL-1 Ga16-CHO (Rel. eff.)” value was “(0.94)” and the 50% effective concentration (EC50) amounted to 12 nM.

Turning to `CC[C@H](C)[C@H](NC(=O)Nc1ccc(Br)cc1)C(=O)NCC(N)=O` [Compound 28, (2S,3S)—N-(2-amino-2-oxoethyl)-2-{[(4-bromophenyl)carbamoyl]amino}-3-methylpentanamide], the “FPRL-1 Ga16-CHO (Rel. eff.)” value is on record as “(0.81)” and the half-maximal effective concentration (EC50) was 4.6 nM.

Turning to `CC(C)C[C@H](NC(=O)Nc1ccc(Br)cc1)C(=O)N[C@H](C(N)=O)C(C)C` [Compound 46], the “FPRL-1 Ga16-CHO (Rel. eff.)” value was “(1.03)” and the EC50 is 1.3 nM.

With `O=C(O)CNC(=O)C(Cc1c[nH]c2ccccc12)NC(=O)Nc1ccc(Br)cc1` (stereo not shown) [{[2-{[(4-bromophenyl)carbamoyl]amino}-3-(1H-indol-3-yl)propanoyl]amino}acetic acid], the “FPRL-1 Ga16-CHO (Rel. eff.)” value is recorded as “(0.97)” and the concentration for a half-maximal effect (EC50) is 0.73 nM.

In the case of `CC(C)CC(C)(NC(=O)Nc1ccc(Br)cc1)C(=O)NCC(=O)OC(C)(C)C` (stereo not shown) [Compound 55, tert-butyl {[2-{[(4-bromophenyl)carbamoyl]amino}-2,4-dimethylpentanoyl]amino}acetate], the “FPRL-1 Ga16-CHO (Rel. eff.)” value is on record as “(0.98)” and the EC50 was determined as 58 nM.

`CC(C)C[C@H](NC(=O)Nc1ccc(Br)cc1F)C(=O)NCC(=O)O` [Compound 34, {[(2S)-2-{[(4-bromo-2-fluorophenyl)carbamoyl]amino}-4-methylpentanoyl]amino}acetic acid]: the “FPRL-1 Ga16-CHO (Rel. eff.)” value is “(1.10)” and the concentration for a half-maximal effect (EC50) is 3.6 nM.

For the compound `CC(C)C[C@H](NC(=O)Nc1ccc(Br)cc1)C(=O)NCC(=O)OC(C)(C)C` [Compound 25, tert-butyl {[(2S)-2-{[(4-bromophenyl)carbamoyl]amino}-4-methylpentanoyl]amino}acetate], the “FPRL-1 Ga16-CHO (Rel. eff.)” value is “(0.85)” and the EC50 was 140 nM.
